According to paper PMC8179358, “An explicitly designed paratope of amyloid-β prevents neuronal apoptosis in vitro and hippocampal damage in rat brain” (Chemical Science, 2020):
*1 amine or outer side, *2 acyl side, *3 side chain or, on linkers, in order; H or OH if unused. Where a SMILES comes first, the peptide text is derived from it. Bridges are numbered along the chain shown (N, C = ends). Roman numbers before positions name the chains, in order. [ ]: non-standard residue; d: D form. X1 = O=C(CCCCC(=O)[*:2])NCCCOCCOCCOCCCNC(=O)CCC(=O)[*:1]; NMeF = CN[C@@H](Cc1ccccc1)C(=O)O; NMeL = CN[C@@H](CC(C)C)C(=O)O; NMeV = CN[C@H](C(=O)O)C(C)C

Tests used:
SH-SY5Y cells [1] = assay: Intracellular Ca2+ (Fura-2AM); format: cell-based, human; settings: Aβ40 10 μM, compared to untreated cells
Text: Condensed or fragmented nuclear bodies characterize the distinctive nature of apoptotic cells. […] Dyshomeostasis of Ca^2+ is also responsible for the increased production of Aβ peptides, by which a degenerative feed-forward cycle is activated, resulting in accelerated apoptosis, synaptic dysfunction, and memory impairment.[49] […]
e. Measurement of intracellular calcium (Ca 2+)
Ca2+sensitive dye Fura-2AM was used to measure free intracellular Ca2+level in SH-SY5Y cell suspension by the previously described method.12 Following treatment with the respective drug, Fura-2 AM (Cayman, USA) at a concentration of 5 µM was added to the culture medium and incubated at 37°C for 45 min. Next, Krebs-Ringer-HEPES (KRH) buffer (135mM NaCl, 5mM KCl, 1mM MgSO4, 0.4mM KH2PO4, 1mM CaCl2, 5.5mM glucose, 20mM HEPES, pH 7.4) was used to wash each plate twice containing (1×10^6cells). Fluorescent microplate reader (FLX 800, Biotek, USA) was used to measure the fluorescence intensity with an excitation and emission spectra of […], respectively. Results are Mean±SEM of quadruplicate measurements from three separate experiments and expressed in the increase in percent relative fluorescent unit (RFU) relative to the baseline reading.
Western blot analysis was performed to measure Bax, Bcl-2, cleaved Caspase 9 and cleaved Caspase 3, pro and anti-apoptotic proteins expression. […]

SH-SY5Y cells [2] = assay: MTT assay, Aβ40 induced cytotoxicity; format: cell-based, human; settings: Aβ40 10 μM, 24 h
Experimental: 1.3. Methods for in vitro cell-based experiments
The human neuroblastoma cell line SH-SY5Y was obtained from the National Centre for Cell Science (NCCS, Pune, India). The cells were grown in DMEM, and Ham’s F12 nutrient mixture (DMEM/F12; 1:1) supplemented with 10% fetal bovine serum (FBS; Gibco, USA), 50 U/ml penicillin, 100 μg/ml streptomycin and incubated in a humidified atmosphere of 5% CO2 at 37°C. All experiments were carried […]
Each experiment was performed
Methylthiazol tetrazolium (MTT) reduction assay was used to measure the viability of cells.10 The SH-SY5Y cells were seeded at a density of 1.5 × 10^4 cells/well in a 96 well plate. To assess self-toxicity, cells […]
period 20µl of MTT reagent (5mg/ml in DPBS) was added to each well and incubated in a humidified atmosphere of 5% CO2 at 37°C for 4h. Formazan crystals (purple) are formed by the metabolically active cells by cleaving the yellow tetrazolium salt. After the incubation period, the MTT solution was aspirated, and 150µL of dimethyl sulfoxide (DMSO) was added to each well to dissolve the formazan precipitate.

Aβ40 = biological target: T1, Aβ40 (Homo sapiens, UniProt P05067); assay: NMR titration with SVD, residue-specific KD; format: binding; settings: residues R5, L17, V24, K28, and G29 of Aβ40, read-out: dissociation constant (KD)
T1 construct: 15N labeled (a) Aβ40 (80 μM)

Compound | intracellular Ca2+ level, Aβ40 alone (SH-SY5Y cells [1]) | cell population after Aβ40 alone (SH-SY5Y cells [2]) | Kd (Aβ40)
Aβ40: commercially available Aβ40 peptide | significantly elevated intracellular Ca^2+ levels | significant reduction in the cell population | 
CC(C)C[C@H](NC(=O)CNC(=O)CCC(=O)NCCCOCCOCCOCCCNC(=O)CCCCC(=O)NCC(=O)N(C)[C@@H](CC(C)C)C(=O)N[C@H](C(=O)N(C)[C@@H](Cc1ccccc1)C(=O)N[C@@H](Cc1ccccc1)C(=O)N[C@@H](C)C(N)=O)C(C)C)C(=O)N(C)[C@H](C(=O)N[C@@H](Cc1ccccc1)C(=O)N(C)[C@@H](Cc1ccccc1)C(=O)N[C@@H](C)C(N)=O)C(C)C [SP1] (I: GL[NMeV]F[NMeF]A-NH2 / II: G[NMeL]V[NMeF]FA-NH2; linker I:N-II:N via X1) |  |  | ~200 µM
